Experimental data from patent US8530489B2 (Vertex Pharmaceuticals Incorporated, priority 2006, dated 2013).

biological target: PLK1 (Homo sapiens, UniProt P53350); test: PLK1 Inhibition Assay I (radioactive-phosphate incorporation); type: biochemical; conditions: Ki(app); PLK1 Inhibition Assay I or II (table does not say which)
Procedure, shortened: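 Ki(app) values came from non-linear regression of initial rates after background subtraction, with phosphopeptide measured by phosphocellulose filter binding and scintillation counting. PLK1 at 2 nM was preincubated with compound (typically from 10 μM, 2-fold dilutions) for 10 min, then run 240 min at 25° C with 350 μM [γ-33P]ATP and 450 μM peptide substrate in HEPES pH 7.5 buffer.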

PLK1, sequence (P53350 whole entry): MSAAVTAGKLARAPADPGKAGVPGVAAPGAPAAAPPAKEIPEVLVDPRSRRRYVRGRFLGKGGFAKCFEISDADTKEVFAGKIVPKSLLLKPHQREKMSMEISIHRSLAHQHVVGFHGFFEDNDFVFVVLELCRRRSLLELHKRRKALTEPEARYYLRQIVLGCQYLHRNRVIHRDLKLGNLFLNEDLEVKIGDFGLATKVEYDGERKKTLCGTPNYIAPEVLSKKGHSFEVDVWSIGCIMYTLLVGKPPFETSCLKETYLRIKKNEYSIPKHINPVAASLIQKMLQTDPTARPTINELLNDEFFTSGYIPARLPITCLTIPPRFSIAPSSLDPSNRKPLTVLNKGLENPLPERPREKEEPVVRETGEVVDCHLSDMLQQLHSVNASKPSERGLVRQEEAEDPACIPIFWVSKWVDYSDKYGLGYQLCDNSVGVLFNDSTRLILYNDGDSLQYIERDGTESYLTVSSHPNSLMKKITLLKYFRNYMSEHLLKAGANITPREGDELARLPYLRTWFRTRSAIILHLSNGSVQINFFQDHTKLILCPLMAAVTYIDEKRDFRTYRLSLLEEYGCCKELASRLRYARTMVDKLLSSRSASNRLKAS

`N#Cc1cnc(NCc2ccc(Cl)nc2)nc1-c1c[nH]c2ncc(C(F)(F)F)cc12` [Compound I-50, 2-((6-chloropyridin-3-yl)methylamino)-4-(5-(trifluoromethyl)-1H-pyrrolo[2,3-b]pyridin-3-yl)pyrimidine-5-carbonitrile] and `N#Cc1cnc(NCc2ccccc2F)nc1-c1c[nH]c2ncc(C(F)(F)F)cc12` [Compound I-21, 2-(2-fluorobenzylamino)-4-(5-(trifluoromethyl)-1H-pyrrolo[2,3-b]pyridin-3-yl)pyrimidine-5-carbonitrile] cannot be ordered by Ki: greater than 40 nM for the first, greater than 40 nM for the second.

`C[C@@H](O)CNc1ncc(C#N)c(-c2c[nH]c3ncc(C(F)(F)F)cc23)n1` [Compound I-97, 2-((R)-2-hydroxypropylamino)-4-(5-(trifluoromethyl)-1H-pyrrolo[2,3-b]pyridin-3-yl)pyrimidine-5-carbonitrile] and `CC(O)CNc1ncc(C#N)c(-c2c[nH]c3ncc(C(F)(F)F)cc23)n1` (centres unmarked) [Compound I-91, 2-(2-hydroxypropylamino)-4-(5-(trifluoromethyl)-1H-pyrrolo[2,3-b]pyridin-3-yl)pyrimidine-5-carbonitrile] fall in the same range of Ki: 3 to 40 nM for the first, 3 to 40 nM for the second.

`CNS(=O)(=O)c1ccc([C@@H](C)Nc2ncc(C#N)c(-c3c[nH]c4ncc(C(F)(F)F)cc34)n2)cc1` [Compound I-200, 4-((1R)-1-(5-cyano-4-(5-(trifluoromethyl)-1H-pyrrolo[2,3-b]pyridin-3-yl)pyrimidin-2-ylamino)ethyl)-N-methylbenzenesulfonamide] and `CCS(=O)(=O)Nc1ccc([C@@H](C)Nc2ncc(C#N)c(-c3c[nH]c4ncc(C(F)(F)F)cc34)n2)cc1` [Compound I-169, N-(4-((1R)-1-(5-cyano-4-(5-(trifluoromethyl)-1H-pyrrolo[2,3-b]pyridin-3-yl)pyrimidin-2-ylamino)ethyl)phenyl)ethanesulfonamide] cannot be ordered by Ki: less than 3 nM for the first, less than 3 nM for the second.

`C[C@H](Nc1ncc(C#N)c(-c2c[nH]c3ncc(C(F)(F)F)cc23)n1)c1ccccc1` [Compound I-5, 2-((S)-1-phenylethylamino)-4-(5-(trifluoromethyl)-1H-pyrrolo[2,3-b]pyridin-3-yl)pyrimidine-5-carbonitrile] and `N#Cc1cnc(NC(CO)c2cccnc2)nc1-c1c[nH]c2ncc(C(F)(F)F)cc12` (centres unmarked) [Compound I-113, 2-(2-hydroxy-1-(pyridin-3-yl)ethylamino)-4-(5-(trifluoromethyl)-1H-pyrrolo[2,3-b]pyridin-3-yl)pyrimidine-5-carbonitrile] cannot be ordered by Ki: greater than 40 nM for the first, greater than 40 nM for the second.

`CC(C)(Nc1ncc(C#N)c(-c2c[nH]c3ncc(C(F)(F)F)cc23)n1)C(=O)O` [IA-9, 2-(5-cyano-4-(5-(trifluoromethyl)-1H-pyrrolo[2,3-b]pyridin-3-yl)pyrimidin-2-ylamino)-2-methylpropanoic acid] and `CC(C)Oc1ncc(C#N)c(-c2c[nH]c3ncc(C(F)(F)F)cc23)n1` [EG5, 2-isopropoxy-4-(5-(trifluoromethyl)-1H-pyrrolo[2,3-b]pyridin-3-yl)pyrimidine-5-carbonitrile] cannot be ordered by Ki: greater than 40 nM for the first, greater than 40 nM for the second.

First: CN1CCC(CNc2ncc(C#N)c(-c3c[nH]c4ncc(C(F)(F)F)cc34)n2)CC1 [Compound I-117, 2-((1-methylpiperidin-4-yl)methylamino)-4-(5-(trifluoromethyl)-1H-pyrrolo[2,3-b]pyridin-3-yl)pyrimidine-5-carbonitrile]
Second: N#Cc1cnc(N[C@@H]2CC[C@H](CO)C2)nc1-c1c[nH]c2ncc(C(F)(F)F)cc12 [Compound I-119, 2-((1R,3S)-3-(hydroxymethyl)cyclopentylamino)-4-(5-(trifluoromethyl)-1H-pyrrolo[2,3-b]pyridin-3-yl)pyrimidine-5-carbonitrile]
The Ki of the first is higher: greater than 40 nM for the first, 3 to 40 nM for the second. The second binds more tightly here.

First: CC(=O)N1CCC([C@H](C)Nc2ncc(C#N)c(-c3c[nH]c4ncc(C(F)(F)F)cc34)n2)CC1 [Compound I-135, 2-((S)-1-(1-acetylpiperidin-4-yl)ethylamino)-4-(5-(trifluoromethyl)-1H-pyrrolo[2,3-b]pyridin-3-yl)pyrimidine-5-carbonitrile]
Second: CCC(Nc1ncc(C#N)c(-c2c[nH]c3ncc(C(F)(F)F)cc23)n1)C1CCN(C(C)=O)CC1 (centres unmarked) [Compound I-174, 2-(1-(1-acetylpiperidin-4-yl)propylamino)-4-(5-(trifluoromethyl)-1H-pyrrolo[2,3-b]pyridin-3-yl)pyrimidine-5-carbonitrile]
The Ki of the first is higher: 3 to 40 nM for the first, less than 3 nM for the second.

`C[C@@H](Nc1ncc(C#N)c(-c2c[nH]c3ncc(C(F)(F)F)cc23)n1)c1ccc(N2CCN(Cc3ccccc3)CC2)cc1` [Compound I-130, 2-((R)-1-(4-(4-benzylpiperazin-1-yl)phenyl)ethylamino)-4-(5-(trifluoromethyl)-1H-pyrrolo[2,3-b]pyridin-3-yl)pyrimidine-5-carbonitrile] and `CC(Nc1ncc(C#N)c(-c2c[nH]c3ncc(C(F)(F)F)cc23)n1)c1ccc(N2CCOCC2)nc1` (centres unmarked) [Compound I-138, 2-(1-(6-morpholinopyridin-3-yl)ethylamino)-4-(5-(trifluoromethyl)-1H-pyrrolo[2,3-b]pyridin-3-yl)pyrimidine-5-carbonitrile] cannot be ordered by Ki: less than 3 nM for the first, less than 3 nM for the second.

`CC(Nc1ncc(C#N)c(-c2c[nH]c3ncc(C(F)(F)F)cc23)n1)c1ccc(N2CCC(O)(C(C)C)CC2)nc1` (centres unmarked) [Compound I-198, 2-(1-(6-(4-hydroxy-4-isopropylpiperidin-1-yl)pyridin-3-yl)ethylamino)-4-(5-(trifluoromethyl)-1H-pyrrolo[2,3-b]pyridin-3-yl)pyrimidine-5-carbonitrile] and `CCC1(O)CCN(c2ccc(C(C)Nc3ncc(C#N)c(-c4c[nH]c5ncc(C(F)(F)F)cc45)n3)cn2)CC1` (centres unmarked) [Compound I-197, 2-(1-(6-(4-ethyl-4-hydroxypiperidin-1-yl)pyridin-3-yl)ethylamino)-4-(5-(trifluoromethyl)-1H-pyrrolo[2,3-b]pyridin-3-yl)pyrimidine-5-carbonitrile] fall in the same range of Ki: 3 to 40 nM for the first, 3 to 40 nM for the second.

`C[C@@H](Nc1ncc(C#N)c(-c2c[nH]c3ncc(C(F)(F)F)cc23)n1)C1CCN(C(=O)[C@H](N)CC(N)=O)CC1` [Compound I-250, (3R)-3-amino-4-(4-((1R)-1-(5-cyano-4-(5-(trifluoromethyl)-1H-pyrrolo[2,3-b]pyridin-3-yl)pyrimidin-2-ylamino)ethyl)piperidin-1-yl)-4-oxobutanamide] and `CC(C)[C@@H](N)CC(=O)N1CCC([C@@H](C)Nc2ncc(C#N)c(-c3c[nH]c4ncc(C(F)(F)F)cc34)n2)CC1` [Compound I-247, 2-((R)-1-(1-((S)-3-amino-4-methylpentanoyl)piperidin-4-yl)ethylamino)-4-(5-(trifluoromethyl)-1H-pyrrolo[2,3-b]pyridin-3-yl)pyrimidine-5-carbonitrile] cannot be ordered by Ki: less than 3 nM for the first, less than 3 nM for the second.

`C[C@@H](Nc1ncc(C#N)c(-c2c[nH]c3ncc(C(F)(F)F)cc23)n1)[C@H]1CC[C@@H](O)CC1` [Compound I-180, 2-((R)-1-((1s,4S)-4-hydroxycyclohexyl)ethylamino)-4-(5-(trifluoromethyl)-1H-pyrrolo[2,3-b]pyridin-3-yl)pyrimidine-5-carbonitrile] and `C[C@@H](Nc1ncc(C#N)c(-c2c[nH]c3ncc(C(F)(F)F)cc23)n1)C1CCCCC1` [Compound I-61, 2-((R)-1-cyclohexylethylamino)-4-(5-(trifluoromethyl)-1H-pyrrolo[2,3-b]pyridin-3-yl)pyrimidine-5-carbonitrile] cannot be ordered by Ki: less than 3 nM for the first, less than 3 nM for the second.

First: CC(C)(Nc1ncc(C#N)c(-c2c[nH]c3ncc(Cl)cc23)n1)C(=O)NC1CCCC1 [IA-4, 2-(4-(5-chloro-1H-pyrrolo[2,3-b]pyridin-3-yl)-5-cyanopyrimidin-2-ylamino)-N-cyclopentyl-2-methylpropanamide]
Second: N#Cc1cnc(NC(CO)C2CCOC2)nc1-c1c[nH]c2ncc(C(F)(F)F)cc12 (centres unmarked) [Compound I-104, 2-(2-hydroxy-1-(tetrahydrofuran-3-yl)ethylamino)-4-(5-(trifluoromethyl)-1H-pyrrolo[2,3-b]pyridin-3-yl)pyrimidine-5-carbonitrile]
The Ki of the first is lower: 3 to 40 nM for the first, greater than 40 nM for the second.

`CCC(Nc1ncc(C#N)c(-c2c[nH]c3ncc(C(F)(F)F)cc23)n1)C1CCN(S(=O)(=O)CC)CC1` (centres unmarked) [Compound I-175, 2-(1-(1-(ethylsulfonyl)piperidin-4-yl)propylamino)-4-(5-(trifluoromethyl)-1H-pyrrolo[2,3-b]pyridin-3-yl)pyrimidine-5-carbonitrile] and `C[C@@H](Nc1ncc(C#N)c(-c2c[nH]c3ncc(C(F)(F)F)cc23)n1)C1CCN(C(=O)[C@H]2C[C@H](O)CN2)CC1` [Compound I-263, 2-((R)-1-(1-((2R,4S)-4-hydroxypyrrolidine-2-carbonyl)piperidin-4-yl)ethylamino)-4-(5-(trifluoromethyl)-1H-pyrrolo[2,3-b]pyridin-3-yl)pyrimidine-5-carbonitrile] cannot be ordered by Ki: less than 3 nM for the first, less than 3 nM for the second.

`CC(Nc1ncc(C#N)c(-c2c[nH]c3ncc(C(F)(F)F)cc23)n1)c1ccc(N2CCC(O)(C3CC3)CC2)nc1` (centres unmarked) [Compound I-195, 2-(1-(6-(4-cyclopropyl-4-hydroxypiperidin-1-yl)pyridin-3-yl)ethylamino)-4-(5-(trifluoromethyl)-1H-pyrrolo[2,3-b]pyridin-3-yl)pyrimidine-5-carbonitrile] and `C[C@@H](Nc1ncc(C#N)c(-c2c[nH]c3ncc(C(F)(F)F)cc23)n1)c1ccc(N2CC[C@H](N3CCCC3)C2)nc1` [Compound I-288, 2-((R)-1-(6-((S)-1,3′-bipyrrolidin-1′-yl)pyridin-3-yl)ethylamino)-4-(5-(trifluoromethyl)-1H-pyrrolo[2,3-b]pyridin-3-yl)pyrimidine-5-carbonitrile] fall in the same range of Ki: 3 to 40 nM for the first, 3 to 40 nM for the second.

`CCN(CC)CCN(C)c1ccc([C@@H](C)Nc2ncc(C#N)c(-c3c[nH]c4ncc(C(F)(F)F)cc34)n2)cn1` [Compound I-287, 2-((R)-1-(6-((2-(diethylamino)ethyl)(methyl)amino)pyridin-3-yl)ethylamino)-4-(5-(trifluoromethyl)-1H-pyrrolo[2,3-b]pyridin-3-yl)pyrimidine-5-carbonitrile] showed a Ki of 3 to 40 nM.
